Measurements from PMC9965539, “Adverse Toxic Effects of Tyrosine Kinase Inhibitors on Non-Target Zebrafish Liver (ZFL) Cells” (International Journal of Molecular Sciences, 2023).
Read-outs that look alike come from different tables or passages of the source.

Legend:
primary rat hepatocytes = settings: cited from earlier work
[1] = test system: targeted and non-targeted human chronic myeloid leukemia cancer cells; design: method as in doi:10.1182/blood.V124.21.5510.5510; settings: therapeutic concentrations (NIL 48 h); cited from earlier work
rats = test system: rats; design: method as in EMEA documents (69); settings: ref EMEA documents (69); cited from earlier work
[2] = test system: certain target cancer cells; design: method as in ref 56, 57 (DAS), 58, 59 (REG); settings: in vitro; 57 (DAS), 58, 59 (REG); cited from earlier work
[3] = test system: zebrafish liver cells (ZFL); test: Propidium iodide live/dead staining by flow cytometry; assay type: cell-based
Method: Benzo[a]pyrene (50 μM), an indirect-acting genotoxic agent which requires metabolic activation for its genotoxic effects, and etoposide (0.17 μM), a direct-acting genotoxic agent, were selected as positive controls. After 72 h, floating and adherent cells were collected, resuspended in ice-cold 1x PBS, and immediately analyzed. Propidium iodide (PI) at a final concentration of 1 μg/mL was added to the cells 5 min before the start of measurements using the MACSQuant Analyzer 10 flow cytometer (Miltenyi Biotech, Bergisch Gladbach, Germany). MASCQuantifiy software (Miltenyi Biotech, Bergisch Gladbach, Germany) was used to quantify PI negative and positive cells. The experiments were repeated three times independently. Statistical significance between the treated groups and control was determined by one-way ANOVA with post hoc multiple comparison Dunett’s test using GraphPad Prism V6 (GraphPad Software, La Jolla, CA, USA). * p < 0.05 was considered statistically significant.

[4] = test system: zebrafish liver cells (ZFL); test: Micronucleus detection by flow cytometry; assay type: cell-based; settings: 72 h
Method: ZFL cells were seeded onto 24-well culture plates (Nunclon) at a density of 35,000 cells per well for 24 h. […] Etoposide (0.17 μM and 0.68 μM) was used as a positive control. After 72 h, cells were placed on ice for 20 min, and subsequently a 0.05 mg/mL EMA solution was added to each well. The cells were placed on ice for 30 min and exposed to light for photoactivation of the EMA fluorochrome. Afterwards, cells were washed and resuspended in lysis solution (0.584 mg/mL NaCl, 1 mg/mL sodium citrate, and 0.3 μL/mL Triton X-100) containing 0.2 μM SYTOX Green and 0.25 mg/mL RNAse A, and incubated for 1 h in the dark at 37 °C. After incubation, lysis solution (85.6 mg/mL sucrose and 15 mg/mL citric acid) containing 0.2 μM SYTOX Green was added to the wells of the plate and incubated for a further 30 min at room temperature in the dark. Cells were analyzed on the same day using MACSQuant Analyzer 10 flow cytometer. MASCQuantify Software 2.11. was used to analyze each sample, and the percentage of micronuclei was determined after the acquisition of a total of 20,000 gated nuclei events, excluding EMA-positive events. One-way ANOVA with post hoc multiple comparison Dunett’s test using GraphPad Prism V6 (GraphPad Software, Carlsbad, CA, USA) was carried out. * p < 0.05 and *** p < 0.0001 were considered statistically significant.

[5] = test system: primary human hepatocytes; settings: cited from earlier work
[6] = MTS assay, viability of ZFL cells; assay type: cell-based, zebrafish; settings: zebrafish, ZFL cells (zebrafish liver cell line), ZFL cells, read-out: IC50 for TKIs Cytotoxicity (95% Confidence Interval); for IC50 at 24 h: 24 h exposure; for IC50 at 48 h: 48 h exposure; for IC50 at 72 h: 72 h exposure
Method: (§1) The viability of ZFL cells after 24, 48, and 72 h of exposure to TKIs was determined using the tetrazolium-based (MTS) assay (Cell Titer 96 AQueous Non-Radioactive Cell Proliferation Assay; Promega, Madison, WI, USA) as previously described by Novak et al.. Cells were seeded in 96-well microtiter plates (Corning Costar Corporation, New York, NY, USA) at a density of 7000 cells/well. […] Three independent experiments were performed, each with five replicates per treatment point. The statistical significance between the treated groups and the solvent control was determined by Student’s t-test using GraphPad Prism V6 (GraphPad Software, La Jolla, CA, USA). *** (p < 0.001)was considered statistically significant.

[7] = test system: zebrafish liver cells (ZFL); test: MTS assay, viability of ZFL cells; assay type: cell-based; settings: 24, 48, 72 h; dose- and time-dependent; ERL and NIL up to their maximum solubility
Method: as §1

mammalian cells = test system: mammalian cells; design: method as in EMEA documents (69); settings: ref EMEA documents (69); cited from earlier work
HepG2 cells [8] = settings: 20 μM; ref Mingard et al. 46; cited from earlier work
[9] = test system: zebrafish liver cells (ZFL); test: Cell cycle analysis with flow cytometry; assay type: cell-based; settings: 72 h; for effect on cell cycle progression: concentration-dependent, parallel decrease in S-phase fraction
Method: ZFL cells were seeded onto T25 culture plates at a density of 450,000 cells for 24 h. […] The positive control was etoposide (0.17 μM), which is known to arrest cells in the G2/M phase of the cell cycle. After 72 h, cells were trypsinized (0.25% trypsin-EDTA) and washed with 1x PBS before fixation in 4% paraformaldehyde (PFA). For flow cytometric analysis, fixed cells were washed in cold 1x PBS and stained with Hoechst 33258 dye (diluted in 0.1% Triton X-100 1:500) as described by Stampar et al.. Flow cytometric measurements were performed using a MACSQuant Analyzer 10 and the experiment was repeated three times independently. Each time, 20,000 single cells were recorded per experimental point. The data obtained were analyzed using FlowJo V10 software (Becton Dickinson, Franklin Lakes, NJ, USA). Statistical analysis for cell cycle was performed by the two-way ANOVA with Fisher’s LSD test using GraphPad Prism V6 (GraphPad Software, La Jolla, CA, USA). * p < 0.05, ** (p < 0.01), *** (p < 0.001) were considered statistically significant.

[10] = test system: liver of male albino rats; design: method as in ref 64 = [64]; 64. Diab A.A.A. El-aziz S.A.A. Hendawy A.A. Hamza R.Z. Salim D.M.M. Protective Effect of Antioxidants Combinations (Vit A, C, E and Selenium) (Antox Drug) against Oxidative Stress and Cellular Toxicit; settings: 10 mg/kg body weight daily for two weeks; cited from earlier work
Swiss albino mice = settings: cited from earlier work
Huh-7 cells [11] = settings: 72 h; cited from earlier work
[12] = test system: human colon adenocarcinoma HT-29 cell line; settings: 16 uM for 12 h; cited from earlier work
Huh-7 cells [13] = test system: Huh-7 cells; design: method as in PMID 32397371; settings: 48 h exposure; cited from earlier work
HepG2 cells [14] = test system: HepG2 cells; design: method as in PMID 32397371; settings: 48 h exposure; cited from earlier work
[15] = test system: human hepatocellular carcinoma SK-HEP-1 cells; settings: approximately 10 μM, 24 h; cited from earlier work
mice = test system: mice; design: method as in EMEA documents (69); settings: ref EMEA documents (69); cited from earlier work
[16] = test system: Huh7, A549 and MCF-7 cells; settings: cited from earlier work
[17] = test system: human hepatocellular carcinoma SMMC-7721 cells; settings: approximately 5 μM, 24 h; cited from earlier work
HepG2 cells [18] = test system: HepG2 cells; design: method as in PMID 32913557; settings: 1 µM for 24 h; cited from earlier work

Question: Which IC50 (primary rat hepatocytes; 48 h exposure, read-out: 50% growth inhibition) does the source give for Cc1nc(Nc2ncc(C(=O)Nc3c(C)cccc3Cl)s2)cc(N2CCN(CCO)CC2)n1 [DAS, dasatinib] here?
Answer: The IC50 was 21.1 µM.

Question: And the cytotoxicity (primary rat hepatocytes)?
Answer: Its cytotoxicity is “cytotoxic only to primary rat hepatocytes”.

Question: And the centromere positive micronuclei [1]?
Answer: The centromere positive micronuclei was “increased the number of centromere positive micronuclei”.

Question: What about the “in vivo micronucleus assay” value (rats) of the same compound?
Answer: Its value is “negative”.

Question: And the “DNA damage assessed by comet assay” value [2]?
Answer: The value was “induce DNA damage”.

Question: And the “FSC/SSC dot plot shift, apoptosis” value ([3]; all tested DAS concentrations (0.015-0.06 μM), 72 h)?
Answer: Its value is “induction of apoptosis”.

Question: What about the exposed cells degraded ([3]; lowest DAS concentration (0.015 μM), 72 h) of the same compound?
Answer: Its exposed cells degraded is “more than 50%”.

Question: What about the “MNi in representative dot plot” value ([4]; 0.015 μM) of the same compound?
Answer: The value was “increased amount of MNi”.

Question: What about the “MNi in representative dot plot” value ([4]; 0.03 μM) of the same compound?
Answer: Its value is “increased amount of MNi”.

Question: What about the “MNi in representative dot plot” value ([4]; 0.06 μM) of the same compound?
Answer: Its value is “low amount of nuclei and MNi”.

Question: What about the cytotoxicity [5] of the same compound?
Answer: Its cytotoxicity is “not to primary human hepatocytes”.

Question: What about the IC50 at 24 h [6] of the same compound?
Answer: The IC50 at 24 h was 0.64 µM.

Question: And the IC50 at 48 h [6]?
Answer: The IC50 at 48 h was 0.24 µM.

Question: What about the IC50 at 72 h [6] of the same compound?
Answer: The IC50 at 72 h was 0.16 µM.

Question: And the “viability of the ZFL cells” value [7]?
Answer: Its value is “reduced”.

Question: And the structural chromosomal aberrations (mammalian cells)?
Answer: The structural chromosomal aberrations was “increased the number of structural chromosomal aberrations”.

Question: What about the apoptosis (HepG2 cells [8]) of the same compound?
Answer: Its apoptosis is “induced apoptosis”.

Question: What about the “concentration that induced G0/G1 cell cycle arrest with decrease in number of cells in S phase” value [9] of the same compound?
Answer: The value was 0.03 µM.

Question: What about the “effect on cell cycle progression” value [9] of the same compound?
Answer: The value was “arrest of the cell cycle in the G0/G1 phase”.

Question: What does the source list for CNC(=O)c1cc(Oc2ccc(NC(=O)Nc3ccc(Cl)c(C(F)(F)F)c3)cc2)ccn1 [SOR, sorafenib]?
Answer: DNA damage in liver (comet assay in vivo) [10]: induced DNA damage; increase in MNi formation (Swiss albino mice): approximately 10 fold; IC50 (primary rat hepatocytes; 24 h, read-out: IC50): 5.46 µM; concentration with cell cycle arrest (Huh-7 cells [11]): 3.7 µM; DNA double strand breaks (neutral comet assay) [12]: did not significantly increase DNA double strand breaks; concentration with significant change in cell viability (Huh-7 cells [13]): 2 µM; concentration with significant change in cell viability (HepG2 cells [14]): 5 µM; MNi formation [15]: did not increase MNi formation; in vivo micronucleus assay (mice): negative; percentage of PI negative cells ([3]; 72 h exposure, low concentrations): did not significantly decrease; DNA damage in vitro [16]: induced DNA damage; MNi formation [17]: did not increase MNi formation; MNi frequency ([4]; non-cytotoxic concentrations): did not significantly increase; IC50 ([5]; 24 h): 10 µM; IC50 at 24 h [6]: 6.93 µM; IC50 at 48 h [6]: 3.36 µM; IC50 at 72 h [6]: 2.71 µM; viability of the ZFL cells [7]: reduced; DNA strand breaks (alkaline comet assay) (HepG2 cells [18]): did not significantly increase; structural chromosomal aberrations (mammalian cells): increased the number of structural chromosomal aberrations; concentration that induced G0/G1 cell cycle arrest with decrease in number of cells in S phase [9]: 1 µM; effect on cell cycle progression [9]: arrest of the cell cycle in the G0/G1 phase
